In the assay the test system is BDF1 mice, P388 leukemia ip, median survival T/C. As to the kind of experiment: NCI In Vivo Anticancer Drug Screen. Data for tumor model P388 Leukemia (intraperitoneal) in B6D2F1 (BDF1) mice. As to conditions: endpoint: median survival time, higher = longer survival. The gist of the method: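 Reported as T/C, where T is the survival measurement in dosed animals and C the same measurement in vehicle controls.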

Setting [1] is: dose: 100.0 mg/kg/injection, schedule: Q01DX009 (ip), vehicle: Klucel (hydroxypropylcellulose) (HPC).
The mark [2] stands for this setting: dose: 200.0 mg/kg/injection, schedule: Q01DX009 (ip), vehicle: Klucel (hydroxypropylcellulose) (HPC).
Where [3] appears, read: dose: 400.0 mg/kg/injection, schedule: Q01DX009 (ip), vehicle: Klucel (hydroxypropylcellulose) (HPC).
Where [4] appears, read: dose: 6.25 mg/kg/injection, schedule: Q04DX003 (ip), vehicle: saline.
[5] abbreviates: dose: 12.5 mg/kg/injection, schedule: Q01DX009 (ip), vehicle: saline.
Where [6] appears, read: dose: 25.0 mg/kg/injection, schedule: Q01DX009 (ip), vehicle: saline.
Where [7] appears, read: dose: 25.0 mg/kg/injection, schedule: Q04DX003 (ip), vehicle: saline.
Setting [8] is: dose: 50.0 mg/kg/injection, schedule: Q01DX009 (ip), vehicle: saline.
Where [9] appears, read: dose: 50.0 mg/kg/injection, schedule: Q04DX003 (ip), vehicle: saline.
[10] abbreviates: dose: 50.0 mg/kg/injection, schedule: Q04DX003 (ip), vehicle: saline with Tween-80.
[11] abbreviates: dose: 100.0 mg/kg/injection, schedule: Q04DX003 (ip), vehicle: saline with Tween-80.
[12] abbreviates: dose: 100.0 mg/kg/injection, schedule: Q01DX009 (ip), vehicle: saline with Tween-80.
The mark [13] stands for this setting: dose: 200.0 mg/kg/injection, schedule: Q01DX009 (ip), vehicle: saline with Tween-80.
Setting [14] is: dose: 400.0 mg/kg/injection, schedule: Q01DX009 (ip), vehicle: saline with Tween-80.
Setting [15] is: dose: 50.0 mg/kg/injection, schedule: Q01DX009 (ip), vehicle: saline with Tween-80.
The mark [16] stands for this setting: dose: 200.0 mg/kg/injection, schedule: Q04DX003 (ip), vehicle: saline with Tween-80.

“And” between values parts separate entries of the source, which are not always exact repeats. Equal values may be shown once. Inconclusive results and toxic doses are left out.

Turning to `Cn1cnc2c1c(=O)[nH]c(=O)n2C`, the T/C is, setting by setting: under setting [1], 109 % of control; under setting [2], 104 % of control; under setting [3], 97 % of control.

As for `O=C(O)C1(O)CC(O)C(O)C(O)C1` (stereo unspecified), the T/C was 96 % of control (dose: 100.0 mg/kg/injection, schedule: Q04DX002 (ip), vehicle: saline with Tween-80); 94 % of control (dose: 200.0 mg/kg/injection, schedule: Q04DX002 (ip), vehicle: saline with Tween-80); 86 % of control (dose: 400.0 mg/kg/injection, schedule: Q04DX002 (ip), vehicle: saline with Tween-80).

Turning to `COc1ccc2c(c1OC)CCN1C3=C(CC4(CC3)OCCO4)C(=O)CC21` (stereo unspecified), the T/C reads like this: (dose: 100.0 mg/kg/injection, schedule: Q04DX003 (ip), vehicle: saline sonified) 105 % of control; (dose: 200.0 mg/kg/injection, schedule: Q04DX003 (ip), vehicle: saline sonified) 100 % of control; (dose: 400.0 mg/kg/injection, schedule: Q04DX003 (ip), vehicle: saline sonified) 90 % of control.

With `COc1cc2c(cc1OC)CC[N+](C)=C2`, the T/C runs as follows: (dose: 3.12 mg/kg/injection, schedule: Q01DX009 (ip), vehicle: saline) 102 % of control; (dose: 3.12 mg/kg/injection, schedule: Q04DX003 (ip), vehicle: saline) 104 % of control; (dose: 6.25 mg/kg/injection, schedule: Q01DX009 (ip), vehicle: saline) 105 % of control; under setting [4], 97 % of control and 122 % of control; under setting [5], 102 % of control; (dose: 12.5 mg/kg/injection, schedule: Q04DX003 (ip), vehicle: saline) 95 % of control and 97 % of control. Moreover, the T/C is 102 % of control under setting [6]; 91 % of control under setting [7]; 91 % of control under setting [8]; 121 % of control under setting [9]; 100 % of control (dose: 100.0 mg/kg/injection, schedule: Q04DX003 (ip), vehicle: saline).

On to `N/N=C1/CCN2CCCc3cccc1c32`, for which the T/C under setting [10] was 100 % of control and the T/C under setting [11] is 110 % of control.

Turning to `C#CCOCC1CNC(=S)O1` (stereo unspecified), the T/C runs as follows: under setting [12], 100 % of control; under setting [13], 100 % of control; under setting [14], 100 % of control.

With `CCCCC(CC)(CC(=O)O)CC(=O)O`, where the note is “dose: 40.0 mg/kg/injection, schedule: Q01DX010 (ip), vehicle: water”, the T/C was 118 % of control.

Take `OC(CCCCC(O)(c1ccccc1)c1ccccc1)(c1ccccc1)c1ccccc1`: the T/C reads like this: (dose: 100.0 mg/kg/injection, schedule: Q01DX001 (ip), vehicle: Klucel (hydroxypropylcellulose) (HPC)) 105 % of control; (dose: 200.0 mg/kg/injection, schedule: Q01DX001 (ip), vehicle: Klucel (hydroxypropylcellulose) (HPC)) 115 % of control; (dose: 400.0 mg/kg/injection, schedule: Q01DX001 (ip), vehicle: Klucel (hydroxypropylcellulose) (HPC)) 100 % of control.

Consider `O=C(Nc1ccccc1C(F)(F)F)Nc1cccc2ccccc12`, for which the T/C is 90 % of control (dose: 200.0 mg/kg/injection, schedule: Q01DX001 (ip), vehicle: saline with Tween-80) and 86 % of control (dose: 400.0 mg/kg/injection, schedule: Q01DX001 (ip), vehicle: saline with Tween-80).

For `C[n+]1ccc(Nc2ccc(NC(=O)c3ccc(Nc4cc[n+](C)c5ccc(N)cc45)cc3)cc2)cc1`, the T/C was 211 % of control (dose: 1.0 mg/kg/injection, schedule: Q01DX009 (ip), vehicle: Klucel (hydroxypropylcellulose) (HPC)); 170 % of control and 195 % of control (dose: 2.0 mg/kg/injection, schedule: Q01DX009 (ip), vehicle: Klucel (hydroxypropylcellulose) (HPC)); 173 % of control (dose: 3.24 mg/kg/injection, schedule: Q04DX003 (ip), vehicle: water); 243 % of control and 250 % of control (dose: 4.0 mg/kg/injection, schedule: Q01DX009 (ip), vehicle: Klucel (hydroxypropylcellulose) (HPC)); 254 % of control (dose: 4.32 mg/kg/injection, schedule: Q01DX009 (ip), vehicle: water); 180 % of control (dose: 5.4 mg/kg/injection, schedule: Q04DX003 (ip), vehicle: water). The T/C by setting is: (dose: 7.2 mg/kg/injection, schedule: Q01DX009 (ip), vehicle: water) 261 % of control; (dose: 8.0 mg/kg/injection, schedule: Q01DX009 (ip), vehicle: Klucel (hydroxypropylcellulose) (HPC)) 244 % of control and 250 % of control; (dose: 9.0 mg/kg/injection, schedule: Q04DX003 (ip), vehicle: water) 220 % of control; (dose: 15.0 mg/kg/injection, schedule: Q04DX003 (ip), vehicle: water) 103 % of control.

In the case of `CCOC(=O)C(C)Oc1ccc(Cl)cc1` (stereo unspecified), the T/C runs as follows: (dose: 25.0 mg/kg/injection, schedule: Q04DX003 (ip), vehicle: water) 106 % of control; (dose: 50.0 mg/kg/injection, schedule: Q04DX003 (ip), vehicle: water) 101 % of control; (dose: 100.0 mg/kg/injection, schedule: Q04DX003 (ip), vehicle: water) 113 % of control; (dose: 200.0 mg/kg/injection, schedule: Q04DX003 (ip), vehicle: water) 112 % of control; (dose: 400.0 mg/kg/injection, schedule: Q04DX003 (ip), vehicle: water) 106 % of control.

Consider `CN(C)C(=O)Nc1ccc(Cc2ccc(NC(=O)N(C)C)cc2)cc1`, for which the T/C runs as follows: under setting [15], 96 % of control; under setting [12], 99 % of control; under setting [13], 108 % of control; under setting [14], 99 % of control.

As to `CN(C)c1ccc(NC(=O)Nc2cccc(Cl)c2)cc1`, the T/C was 95 % of control under setting [11]; 90 % of control under setting [16]; 95 % of control (dose: 400.0 mg/kg/injection, schedule: Q04DX003 (ip), vehicle: saline with Tween-80).

Turning to `O=[N+]([O-])c1cc[n+]([O-])c(Br)c1`, the T/C reads like this: under setting [15], 90 % of control; under setting [11], 100 % of control; under setting [13], 87 % of control; under setting [16], 90 % of control.

With `Cc1ccccc1NS(=O)(=O)c1c([N+](=O)[O-])ncn1C`, the T/C is, setting by setting: (dose: 50.0 mg/kg/injection, schedule: Q01DX009 (ip), vehicle: Klucel (hydroxypropylcellulose) (HPC)) 110 % of control; under setting [1], 116 % of control; under setting [2], 116 % of control; under setting [3], 95 % of control.

As to `CC(CC(=O)c1ccccc1)=Nc1ccccc1.CC(CC(=O)c1ccccc1)=Nc1ccccc1.[Cu]`, the T/C reads like this: (dose: 100.0 mg/kg/injection, schedule: Q01DX001 (ip), vehicle: saline sonified) 100 % of control; (dose: 200.0 mg/kg/injection, schedule: Q01DX001 (ip), vehicle: saline sonified) 100 % of control; (dose: 400.0 mg/kg/injection, schedule: Q01DX001 (ip), vehicle: saline sonified) 90 % of control.

In the case of `NC(N)=Nc1ccc(C(=O)O)cc1`, the T/C is 104 % of control under setting [10], 100 % of control under setting [11] and 100 % of control under setting [16].

In the case of `Cc1n[nH]c(C)c1Br`, the T/C (dose: 75.0 mg/kg/injection, schedule: Q01DX009 (ip), vehicle: saline with Tween-80) is 95 % of control; the T/C (dose: 150.0 mg/kg/injection, schedule: Q01DX009 (ip), vehicle: saline with Tween-80) is 98 % of control; the T/C (dose: 300.0 mg/kg/injection, schedule: Q01DX009 (ip), vehicle: saline with Tween-80) was 95 % of control.

As for `CCOC(=O)C(C(C)=O)C(C)C` (stereo unspecified), the T/C was 112 % of control (dose: 100.0 mg/kg/injection, schedule: Q01DX005 (ip), vehicle: other); 117 % of control (dose: 200.0 mg/kg/injection, schedule: Q01DX005 (ip), vehicle: other); 109 % of control (dose: 400.0 mg/kg/injection, schedule: Q01DX005 (ip), vehicle: other).

With `CS(=O)(=O)NN`, the T/C under setting [5] was 95 % of control; the T/C under setting [6] is 95 % of control; the T/C (dose: 37.5 mg/kg/injection, schedule: Q04DX003 (ip), vehicle: saline) is 100 % of control; the T/C under setting [8] is 90 % of control; the T/C (dose: 75.0 mg/kg/injection, schedule: Q04DX003 (ip), vehicle: saline) is 90 % of control.

As for `CSc1ccc2c(c1)C(N1CCN(C)CC1)Cc1ccccc1S2` (stereo unspecified), the T/C by setting is: under setting [4], 113 % of control; under setting [7], 114 % of control; under setting [9], 107 % of control.
